# US20210371351A1, “MIXTURES COMPRISING AT LEAST TWO DIFFERENT NITRIFICATION INHIBITORS SELECTED FROM 2-(3,4-DIMETHYL-1H-PYRAZOL-1-YL)SUCCINIC ACID (DMPSA), 3,4-DIMETHYL PYRAZOLIUM GLYCOLATE (DMPG) AND OTHER COMPOUNDS” (BASF SE, priority 2017, published 2021)
# System: nitrification
# Test: Example 4: soil column trial (soil Limburgerhof), DMPSA and DMPP, other weight ratios; incubation 10 d at 15° C.; % inhibition of NO3-N formation (Böhland), Colby
# Details: 10 days of incubation at 15° C.; 0.005% DMPP, 0.45% DMPSA
# Source text: The effect on NH4+ retention and NH4+ to NO3− ratios in the soil after fertilization of ammonium sulfate with the addition of DMPP, DMPSA or a combination of DMPP and DMPSA was investigated in column trials simulating climatic conditions of spring time in central Europe. Soil Limburgerhof (pH(CaCl2) 6.8, texture: 73% sand; 24% silt, 3% clay) was filled dry into a glass column with an inner width of 4 cm. At the bottom 0.4 g cotton wool was placed above which a frit (Co. Robu, pore size 1) was placed above which 100 g of 2 mm sieved soil Limburgerhof was layered. The soil height in the column was about 7 cm. Before fertilization the soil was brought to about 60% of its water holding capacity (WHC) be adding 14.4 mL of deionized water. Per column 10 mg NH4—N as ammonium sulfate was fertilized or not (control) together or not with 0.005% or 0.015% DMPP (DMPP obtained from BASF SE), 0.45% DMPSA (DMPSA used as free acid obtained from BASF SE) and […] or 0.015% DMPP plus 0.45% DMPSA (% of nitrification inhibitor w/w of NH4-N). Every treatment was replicated three times. After fertilization, 50 mL demineralized water was carefully and slowly placed on top of each column which equals about 31 mm precipitation. After 24 h the eluate was collected and by sucking off the soil to bring it back to about 60% of its WHC. All handlings including soil preparation, fertilization and the temperature of the water for both wetting the soil and the artificial precipitation up to the collection of the eluate 24 h after fertilization was performed at 5° C.
# Thereafter, the columns were incubated for 10 d or 20 d at constantly 15° C. in an incubator. After 7 d and 14 d water was added by weight where needed to bring the soils uniformly to 60% WHC. After 10 d or 20 d the soil was removed from the columns and extracted with 1% (w/w) K2SO4 solution by shaking for 2 h at room temperature. The filtrated extract was then analyzed for NH4+ and NO3− colorimetrical by an autoanalyzer.
# To calculate the inhibition of nitrate formation by the nitrification inhibitors during the incubation, the above-mentioned Böhland equation was used. To examine synergistic effects of the combination of DMPP+DMPSA the formula by Colby (Colby, S.R., “Calculating synergistic and antagonistic responses of herbicide Combinations”, Weeds, 15, pp. 20-22, 1967) was used. To determine background levels of NH4+ to NO3−, every treatment was also extracted immediately after fertilization and after leaching prior to the further incubation at 15° C. for 10 d or 20 d.
substance,measurement,value
"2-(3,4-dimethyl-1H-pyrazol-1-yl)succinic acid and/or 2-(4,5-dimethyl-1H-pyrazol-1-yl)succinic acid [DMPSA]",During incubation: % inhibition of NO3—N formation by NI acc. to Böhland equation (1973) (MV),22.9%
same,Net NI effect % NH4 from fertilized NH4 (MV),9.36%
same,Ratio NH4—N/NO3—N (MV),0.20
same,Soil mg/100 g NH4—N (MV),0.96 mg/100 g
same,Soil mg/100 g NO3—N (MV),5.15 mg/100 g
